A value given as a limit tells only on which side of the number the result lay.

The values that follow come from patent publication US20220047587A1, “SYNERGISTIC COMPOSITIONS COMPRISING R-2-(SUBSTITUTED-SULFONYL)-HEXAHYDRO-PYRROLO[1,2-A]PYRAZIN-6(2H)-ONES AND S-2-(SUBSTITUTED-SULFONYL)-HEXAHYDRO-PYRROLO[1,2-A]PYRAZIN-6(2H)-ONES IN A NON-RACEMIC RATIO” (Metys Pharmaceuticals AG, priority 2018, published 2022).

Assay [1] has as its system paclitaxel-treated rats. Kind of assay: Paclitaxel-induced mechanical allodynia (von Frey test) after i.v. administration. The assay is classed as in vivo, rat. The following applies: single acute administration 1 mg/kg i.v., adult male Sprague Dawley rats, 0-75 min after injection (FIG. 1). From the text: (§1) Each animal was placed in a chamber with a mesh metal floor covered by a plastic dome that enabled the animal to walk freely, but not to jump. The mechanical stimulus was then delivered in the mid-plantar skin of left hind paw using an electronic von Frey apparatus (37400 Dynamic Plantar Aesthesiometer, Ugo Basile, Comerio, Varese, Italy). The cut-off was set at 50 g, while the increasing force rate (ramp duration) was set at 20 s. In the single administration protocol, pain threshold measurements have been performed before (pre-dose) and at regular intervals after treatment. In the repeated treatment protocol, the pre-test value was measured 13 h after the last administration; afterward the animals received a new administration and measures were performed at the described times. Results are expressed in […] and represent the mean±S.E.M. of mechanical thresholds.
(§2) Paclitaxel (2 mg/kg i.p.) was administered on days 1, 3, 5 and 8. Test compounds were dissolved in saline and administered intravenously at the dose of 1 mg/kg to adult male Sprague-Dawley rats (Charles River, Italy, 220-250 g weight). Data were obtained at 0-75 minutes after injection and are expressed as the mean±s.e.m. of six animals. *P<0.05 and **<0.01 vs vehicle+paclitaxel treated rats; °P<0.05 and ^°°P<0.01 vs. NT24336 (R) treated group. […] *P<0.05 and **<0.01 vss vehicle+paclitaxel treated rats.

For another assay, the system named is CCI rats. The assay is described as follows: Chronic constriction injury (CCI) model, mechanical allodynia after oral administration. The assay is classed as in vivo, rat. The following applies: p.o.
Text: (§3) Results are expressed as the minimum dose (via the indicated route) at which a statistically-significant difference is observed when compared to time-matched injured rats receiving a vehicle administration by the same route. An analysis of variance, ANOVA, followed by Fisher's protected least significant difference procedure for post hoc comparison, was used to verify significance between two means of hyperalgesic behavioral results from the Randall & Selitto apparatus paw pressure test (“anti-hyperalgesia”) or from the Von Frey test (“mechanical allodynia”) or from the Cold Plate test (“cold allodynia”). P values 0.05 were considered significant. This definition applies to any doses specified herein as inhibiting “in a statistically significant manner”.
as §1
To evaluate the effect of test compounds in comparison to vehicle or selected comparators on mechanical hyperalgesia, the chronic constriction injury models in rats, a widely accepted model of painful neuropathy (Wang and Wang, 2003) was chosen.
Neuropathy was induced according to the procedure described by Bennett and Xie ([…]). Briefly, rats were anaesthetized with chloral hydrate 400 mg/kg i.p. under aseptic conditions, the right common sciatic nerve was exposed at the level of the middle thigh by blunt dissection. Proximal to the trifurcation, the nerve was carefully freed from the surrounding connective tissue and four chromic cat gut ligatures (4-0, Ethicon, Norderstedt, Germany) were tied loosely around it with about 1 mm spacing. After hemostasis was confirmed, the incision was closed in layers. Then animals were allowed to recover from anesthesia and surgery and were kept one per cage with free access to water and standard laboratory chow. This procedure induces the appearance of hyperalgesia and allodynia in response to mechanical stimuli, which are evident 2-5 days after injury and reach their maximum severity in about 14 days.

The test system of another assay is MIA-treated rats. The assay is described as follows: MIA-induced knee osteoarthritis model, mechanical hyperalgesia after i.v. administration. The assay is classed as in vivo, rat.
Text: as §3
(§4) Paw mechanical sensitivity was determined using a Randall & Selitto apparatus (Randall and Selitto, 1957) exerting a force that increases at constant rate (32 g/s). The stimulus causing paw withdrawal was evaluated before and at different times after treatment. Results represent the mean of mechanical thresholds for paw withdrawal expressed as grams. To avoid possible damage to the rat paw the maximum applied force was set at 240 g. In the single administration protocol, paw pressure tests were performed before (pre-dose) and at regular intervals after treatment.
A single intra-articular injection of sodium monoiodoacetate (MIA) was introduced into the knee joint of rats according to the method described by Fernihough J et al., 2004. Sodium monoiodoacetate (MIA) inhibits chondrocyte metabolism leading to cartilage degradation in form of osteoarthritic-like focal lesions in the cartilage associated with subchondral bone thickening 14 days after administration (Guingamp et al., 1997). This model therefore can easily and quickly reproduce osteoarthritic-like lesions and functional impairment in rats, similar to that observed in human disease (Guzman et al., 2003). After 7 days post-injection, the inflammatory component subsides and the remaining pain is considered neuropathic in nature. Briefly, rats were deeply anaesthetized with diethyl ether. Following abolition of the hind paw pinch withdrawal reflex, a 27-gauge needle was introduced into the joint cavity between the tibial plateau and femoral condyles. Once in place, 2 mg of MIA were diluted in a volume of […] of 1% CMC (carboxymethylcellulose in water, Sigma-Aldrich, Italy) and injected into one knee joint and the rat was allowed to recover for 14 days prior to pain assessment.

Assay [2] concerns streptozotocin-treated mice. The assay is described as follows: Streptozotocin diabetic peripheral neuropathy model, thermal hyperalgesia after oral administration. The assay is classed as in vivo, mouse. The following applies: p.o.
Text: as §3
Mice (=30 g) were injected intravenously in the tail with 200 mg/kg streptozotocin (Wako Pure Chemicals, Richmond, Va.) prepared in saline adjusted to pH 4.5 in 0.1 N citrate buffer. Age-matched non-diabetic control mice were injected with the vehicle alone. Streptozotocin solutions were freshly prepared due to the limited stability of the compound. Animals were kept in a group of four per cage with special care of food and water supplement. The bed of the cage was changed every day. […] The serum glucose level was measured by glucose oxidase method from blood samples obtained by tail vein pricking. […] Animals at 7 days post-streptozotocin treatment were used in the study. […] Injections were performed using a Hamilton microliter syringe fitted with a 26-gauge needle, according to the method of Haley and McCormick (1957). The site of injection was 2 mm caudal and 2 lateral to the bregma, and 3 mm in depth from the skull surface. The injection volume was 5 μl.

A further assay deals with oxaliplatin-treated rats. The assay is described as follows: Oxaliplatin-induced peripheral sensory neuropathy model, hyperalgesia after oral administration. As to conditions: p.o. The class given is in vivo, rat.
Text: as §3, §4
Peripheral sensory neuropathy was induced in adult rats, by administration of oxaliplatin (Tocris) at […] i.p. in saline once daily for 5 consecutive days every week for three weeks (cumulative dose 36 mg/kg) according to Cavaletti et al., 2001. Starting from day 21 after the first oxaliplatin administration, the effect of repeated oral administration of racemic unifiram or the preferred inventive composition with an enantiomeric excess of (R)-unifiram of 50% corresponding to a 3:1 (R):(S) ratio of the enantiomers on oxaliplatin-induced mechanical hyperalgesia was assessed.

A further assay relates to vincristine-treated rats. The assay is described as follows: Vincristine-induced peripheral sensory neuropathy model, hyperalgesia after oral administration. The assay is classed as in vivo, rat. The following applies: p.o.
Text: as §3, §4

Assay [3] relates to paclitaxel-treated rats. The assay is described as follows: Paclitaxel-induced peripheral sensory neuropathy model, hyperalgesia (paw pressure) after i.v. administration. The assay is classed as in vivo, rat.
Text: as §3, §4, §2

With `O=C1CCC2CN(S(=O)(=O)c3ccccc3F)CCN12` (racemic) [R:S mixture 1:1, 2-(2-fluorobenzenesulfonyl)hexahydropyrrolo[1,2-a]pyrazin-6-one], the “Effect on paclitaxel-induced mechanical allodynia (von Frey test)” value (“Effect” for short) in the assay on paclitaxel-treated rats [1] (1 mg/kg) is “marginally effective”.

As for `O=C1CCC2CN(S(=O)(=O)c3ccccc3F)CCN12` (racemic) [R:S mixture 3:1, 2-(2-fluorobenzenesulfonyl)hexahydropyrrolo[1,2-a]pyrazin-6-one], the “Effect” value in the assay on paclitaxel-treated rats [1] (1 mg/kg) is “the most active one”.

For the molecule `O=C1CC[C@@H]2CN(S(=O)(=O)c3ccccc3F)CCN12` [NT-24336, 2-(2-fluorobenzenesulfonyl)hexahydropyrrolo[1,2-a]pyrazin-6-one], the figures for the “Lowest dose at which CCI-induced mechanical allodynia is inhibited in a statistically significant manner (P < 0.05)” value with CCI rats (30 min after administration), in the assay with CCI rats (60 min after administration) and with CCI rats (90 min after administration) were 1 mg/kg, 3 mg/kg and 3 mg/kg, respectively. The “Lowest dose at which MIA-induced mechanical hyperalgesia is inhibited in a statistically significant manner (P < 0.05)” value in the assay with MIA-treated rats (15 min after administration), with MIA-treated rats (30 min after administration) and in the assay on MIA-treated rats (45 min after administration) was 3 mg/kg in each case. The “Lowest dose at which streptozotocin-induced diabetese-like thermal hyperalgesia is inhibited in a statistically significant manner (P < 0.05)” value in assay [2] (30 min after administration), in assay [2] (60 min after administration), in assay [2] (90 min after administration) and in assay [2] (120 min after administration) was 30 mg/kg in each case. Moreover, the “Lowest dose at which oxaliplatin-induced hyperalgesia is inhibited in a statistically significant manner (P < 0.05)” value was 1 mg/kg in the assay on oxaliplatin-treated rats (30 min after administration), 1 mg/kg in the assay with oxaliplatin-treated rats (60 min after administration), 1 mg/kg in the assay on oxaliplatin-treated rats (90 min after administration) and greater than 10 mg/kg in the assay on oxaliplatin-treated rats (120 min after administration). For the same molecule, the “Lowest dose at which vincristine-induced hyperalgesia is inhibited in a statistically significant manner (P < 0.05)” value in the assay on vincristine-treated rats (30 min after administration) is recorded as 10 mg/kg; in the assay on vincristine-treated rats (60 min after administration) it was 10 mg/kg; with vincristine-treated rats (90 min after administration), 10 mg/kg; with vincristine-treated rats (120 min after administration), greater than 10 mg/kg. In addition, the “Lowest dose at which paclitaxel-induced hyperalgesia is inhibited in a statistically significant manner (P < 0.05)” value in the assay on paclitaxel-treated rats [3] (15 min after administration), with paclitaxel-treated rats [3] (30 min after administration) and in the assay on paclitaxel-treated rats [3] (45 min after administration) was 3 mg/kg in each case.

On to `O=C1CCC2CN(S(=O)(=O)c3ccccc3F)CCN12` (stereo not drawn) [NT-24781, 2-(2-fluorobenzenesulfonyl)hexahydropyrrolo[1,2-a]pyrazin-6-one], for which the “Lowest dose at which paclitaxel-induced hyperalgesia is inhibited in a statistically significant manner (P < 0.05)” value in the assay on paclitaxel-treated rats [3] (15 min after administration), in the assay on paclitaxel-treated rats [3] (30 min after administration) and with paclitaxel-treated rats [3] (45 min after administration) was greater than 3 mg/kg each time. Also, in the assay with paclitaxel-treated rats [1], the “Effect” value is “almost inactive”.
